Results as given in PMC5736709, “Unravelling the specificity and mechanism of sialic acid recognition by the gut symbiont Ruminococcus gnavus” (Nature Communications, 2017).
“And” between values parts separate entries of the source, which are not always exact repeats. Equal entries are not always repeated. “Also recorded” adds a separate entry of the source. Where two headings read alike, the source gives them in different places.

Columns and labels:
Design in all cases: species or system Ruminococcus gnavus ATCC 29149
[1] = biological target: T1, RgCBM40 (Mediterraneibacter gnavus (Ruminococcus gnavus), UniProt A7B557); experiment: Sialoglycan microarray binding of RgCBM40; details: for Binding of RgCBM40 on sialoglycan microarray: RgCBM40 at 20 µg ml^−1; for Binding intensity on sialoglycan microarray, fold less: RgCBM40, βR1-linked glycans
T1 sequence (A7B557 entry or part of it): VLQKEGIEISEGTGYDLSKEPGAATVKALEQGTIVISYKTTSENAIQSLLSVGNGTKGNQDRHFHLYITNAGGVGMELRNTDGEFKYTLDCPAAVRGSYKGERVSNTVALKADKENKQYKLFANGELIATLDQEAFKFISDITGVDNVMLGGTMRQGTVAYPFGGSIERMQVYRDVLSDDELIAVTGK
Description: (§1) Glycan microarrays were fabricated using epoxide-derivatized slides as previously described. Printed glycan microarray slides were blocked by ethanolamine, washed and dried. Slides were then fitted in a multi-well microarray hybridisation cassette (AHC4X8S, ArrayIt, Sunnyvale, CA, USA) to divide into 8 subarrays. The subarrays were blocked with ovalbumin (1% w/v) in PBS (pH 7.4) for 1 h at room temperature, with gentle shaking. Subsequently, the blocking solution was removed and diluted protein samples of RgCBM40 and RgGH33 D282A with various concentrations were added to each subarray. After incubating the samples for 2 h at room temperature with gentle shaking, the slides were washed. Diluted anti-His-HiLyte Flour 555 antibodies in PBS were added to the subarrays, incubated for 1 h at room temperature, washed and dried. The microarray slides were scanned by Genepix 4000B microarray scanner (Molecular Devices Corp., Union City, CA, USA). The data analysis was performed using Genepix Pro 7.0 analysis software (Molecular Devices Corp.). It is important to note that glycans on the array with sialic acid O-acetyl groups undergo gradual losses of these labile ester groups. Therefore, definitive conclusions about 9-O-acetylation are only possible in instances wherein binding is exclusively to the O-acetylated sialoglycan spot, and not to the corresponding non-O-acetylated spot.

[2] = tested on: RgGH33 D282A; experiment: Sialoglycan microarray binding of RgGH33 D282A; details: RgGH33 D282A at 200 µg ml^−1
Description: as §1

[3] = biological target: T1, RgCBM40; experiment: STD NMR of sialoglycans with RgCBM40 WT; details: 1 mM sialoglycan, 50 μM RgCBM40 WT, 288 K; 'exception' = monosaccharides for which binding was not detected
Description: ^1H and ^13C resonance assignment for all the sugars was performed on the bases of 1D ^1H, 2D DQF-COSY, TOCSY, HSQC and NOESY experiments run on the free ligands in unbuffered D2O, pH 7.0. For STD NMR experiments, all the samples consisted of 1 mM sialoglycans and 50 μM RgCBM40 (WT or I95A mutant) in D2O buffer solution of 10 mM Tris-d11 pH 7.8 and 100 mM NaCl (ligand: protein ratio 20:1). An STD pulse sequence that included 2.5 ms and 5 ms trim pulses and a 3 ms spoil gradient was used. Saturation was achieved applying a train of 50 ms Gaussian pulses (0.40 mW) on the f2 channel, at 0.60 p.p.m. (on-resonance experiments) and 40 p.p.m. (off-resonance experiments). The broad protein signals were removed using a 40 ms spinlock (T1ρ) filter. All the experiments were recorded at ^1H frequency of 800.23 MHz on a Bruker Avance III spectrometer equipped with a 5 mm probe TXI 800 MHz H-C/N-D-05 Z BTO, at 288 K. For all the sialoglycans in the presence of RgCBM40, an STD experiment with a saturation time of 2 s and a relaxation delay of 5 s was performed, as a first test for binding. For the confirmed binders, the STD NMR experiments were carried out at different saturation times (0.5, 1, 2, 3, 4 and 5 s) with 1 K scans and relaxation delay of 5 s, in order to obtain the binding epitope mapping. The resulting build-up curves for each proton were fitted mathematically to a mono-exponential equation (y = a×[1-exp(b×x)]), from which the initial slopes (a×b) were obtained. For each ligand, the binding epitope mapping was obtained by dividing the initial slopes by the one of the H7 proton of the corresponding sialic acid ring, to which an arbitrary value of 100% was assigned. This normalisation of the STD values allows the comparison across all the sialoglycans.

[4] = biological target: T1, RgCBM40; experiment: ITC of sialoglycans binding to RgCBM40 wild type; details: RgCBM40 WT; for Kd: ITC in PBS, 115-230 μM protein in cell, syringe 10 mM sugar (25 mM for Neu5Ac), * = estimate only, Kd too high to determine
Description: Isothermal titration calorimetry (ITC) experiments were performed using the PEAQ-ITC system (Malvern, Malvern, UK) with a cell volume of 200 µl. Prior to titration protein samples were exhaustively dialysed into PBS. The ligand was dissolved in the dialysis buffer. The cell protein concentration was 115 µM (except for mutant I95A where it was 173 µM and the wild-type interaction with 6′SL where it was 230 µM) and the syringe ligand concentration was 10 mM (25 mM for Neu5Ac). Controls with titrant (sugar) injected into buffer only were subtracted from the data. Analysis was performed using Malvern software, using a single-binding site model. The stoichiometry of binding sites was set to 1.0 as this was evident from the crystal structure. Quantitative and most qualitative experiments were carried out in triplicate.

## CC(=O)N[C@H]1[C@H]([C@H](O)[C@H](O)COC(C)=O)O[C@@](O[C@H]2[C@@H](O)[C@@H](CO)O[C@@H](OCCCN=[N+]=[N-])[C@@H]2O)(C(=O)O)C[C@@H]1O [Neu5,9Ac2α3GalβR1]
[1]
  Binding of RgCBM40 on sialoglycan microarray: highest binding

## CC(=O)N[C@H]1[C@H]([C@H](O)[C@H](O)CO)O[C@@](O[C@H]2[C@@H](O)[C@@H](CO)O[C@@H](O[C@H]3[C@H](O)[C@@H](NC(C)=O)C(O)O[C@@H]3CO)[C@@H]2O)(C(=O)O)C[C@@H]1O (stereo partly drawn) [3′SLN, Neu5Acα3LacNAcβ]
[2]
  Binding of RgGH33 D282A on sialoglycan microarray: interacted weakly
[3]
  Binding to RgCBM40 detected by STD NMR: detected

## Neu5Acα6GalαOC3H6N3 [Neu5Ac-STn]
[3]
  Binding to RgCBM40 detected by STD NMR: detected

## CC(=O)NC1C(O)CC(OC2C(O)C(CO)OC(OC3C(O)C(CO)OC(O)C3NC(C)=O)C2O)(C(=O)O)OC1C(O)C(O)CO (stereo not drawn) [STF, Neu5Acα3Galβ3GalNAc]
[2]
  Binding of RgGH33 D282A on sialoglycan microarray: interacted weakly

## Neu5Gc9Acα3Galβ3GalNAcβR1 [Neu5Gc9Ac-TF]
[1]
  Binding intensity on sialoglycan microarray, fold less: 5–10 fold

## α2-3-sialylated Lewis X [3′SLX]
[1]
  Binding of RgCBM40 on sialoglycan microarray: bound

## CC(=O)NC1C(O)CC(OC2C(O)C(O)OC(CO)C2O)(C(=O)O)OC1C(O)C(O)CO (stereo not drawn) [3′SGal, Neu5Acα3Gal]
[3]
  Binding to RgCBM40 detected by STD NMR: detected

## CC(=O)N[C@H]1C2OC(C(=O)O)(C[C@@H]1O)O[C@@H]2[C@H](O)CO (stereo partly drawn) [2,7-anhydro-Neu5Ac]
[3]
  Binding to RgCBM40 detected by STD NMR: exception

## Neu5Gcα6GalαOC3H6N3 [Neu5Gc-STn]
[3]
  Binding to RgCBM40 detected by STD NMR: detected

## Neu5Acα2-6Tn
[1]
  Binding of RgCBM40 on sialoglycan microarray: bound

## Neu5Gcα3Galβ3GalNAcβR1 [Neu5Gc-TF]
[1]
  Binding intensity on sialoglycan microarray, fold less: 5–10 fold

## CC(=O)NC1C(O)CC(OC2C(O)C(CO)OC(OC3C(O)C(CO)OC(OCCCN=[N+]=[N-])C3NC(C)=O)C2O)(C(=O)O)OC1C(O)C(O)CO (stereo not drawn) [STFαOC3H6N3]
[3]
  Binding to RgCBM40 detected by STD NMR: detected

## Neu5Acα2-3TF
[1]
  Binding of RgCBM40 on sialoglycan microarray: bound

## CC(=O)N[C@H]1[C@H]([C@H](O)[C@H](O)CO)O[C@](OC[C@H]2O[C@@H](O[C@H]3[C@H](O)[C@@H](NC(C)=O)C(O)O[C@@H]3CO)[C@H](O)[C@@H](O)[C@H]2O)(C(=O)O)C[C@@H]1O (stereo partly drawn) [6′SLN, Neu5Acα6LacNAc]
[3]
  Binding to RgCBM40 detected by STD NMR: detected

## Neu5,9Ac2-TF9Ac2α2-3TF
[1]
  Binding of RgCBM40 on sialoglycan microarray: bound

## Neu5Acα3Galβ3GalNAcβ3Lac
[2]
  Binding of RgGH33 D282A on sialoglycan microarray: interacted weakly

## O=C(CO)N[C@H]1[C@H]([C@H](O)[C@H](O)CO)OC(O)(C(=O)O)C[C@@H]1O (stereo partly drawn) [Neu5Gc]
[4]
  Binding to RgCBM40 (in words): weak binding
[4]; read-out: Kd
  Kd: ~21 mM and ~20 mM
[3]
  Binding to RgCBM40 detected by STD NMR: exception; also recorded: no interaction was observed

## O=C(CO)N[C@H]1[C@H]([C@H](O)[C@H](O)CO)O[C@@](O[C@H]2[C@@H](O)[C@@H](CO)O[C@@H](O[C@H]3[C@H](O)[C@@H](O)C(O)O[C@@H]3CO)[C@@H]2O)(C(=O)O)C[C@@H]1O (stereo partly drawn) [3′SLGc, Neu5Gcα3Lac]
[4]; Kd
  Kd: 2.69 mM and ~3 mM
[3]
  Binding to RgCBM40 detected by STD NMR: detected

## Neu5Acα3Lacβ [GM3]
[2]
  Binding of RgGH33 D282A on sialoglycan microarray: interacted weakly

## Neu5,9Ac2α2-6Tn
[1]
  Binding of RgCBM40 on sialoglycan microarray: bound

## CC(=O)N[C@H]1[C@H]([C@H](O)[C@H](O)CO)OC(OC[C@H]2OC(O)[C@H](O)[C@@H](O)[C@H]2O)(C(=O)O)C[C@@H]1O (stereo partly drawn) [6′SGal, Neu5Acα6 Gal]
[3]
  Binding to RgCBM40 detected by STD NMR: detected

## O=C(CO)N[C@H]1[C@H]([C@H](O)[C@H](O)CO)O[C@@](OC[C@H]2O[C@@H](O[C@H]3[C@H](O)[C@@H](O)C(O)O[C@@H]3CO)[C@H](O)[C@@H](O)[C@H]2O)(C(=O)O)C[C@@H]1O (stereo partly drawn) [6′SLGc, Neu5Gcα6Lac]
[4]; Kd
  Kd: ~11 mM and > 10 mM
[3]
  Binding to RgCBM40 detected by STD NMR: detected
